The results in this text go back to patent US12398111B2, “Triazine compounds and pharmaceutical use thereof” (Japan Tobacco Inc., priority 2014, dated 2025).

The target of the assay is T1, human mPGES-1 (Homo sapiens, UniProt O14684).
T1 construct: made in house; host or cells: FreeStyle CHO-S cells (Chinese hamster ovary), transient transfection with pcDNA3.1(+)/human mPGES-1; microsome fraction used
T1 sequence (O14684 1-152): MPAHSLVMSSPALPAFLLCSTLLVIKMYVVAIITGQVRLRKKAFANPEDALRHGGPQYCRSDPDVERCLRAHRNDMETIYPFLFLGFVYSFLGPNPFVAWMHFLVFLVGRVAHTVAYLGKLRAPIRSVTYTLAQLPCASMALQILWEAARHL
Nature of the assay: Evaluation of human mPGES-1 enzyme inhibitory activity (PGE2 measured by HTRF, microsome fraction of CHO-S cells expressing human mPGES-1). The class given is biochemical. As to conditions: IC50 value; microsome fraction of CHO-S cells expressing human mPGES-1, PGE2 by HTRF. Put shortly: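 Enzyme source: microsomes from CHO-S cells transfected with human mPGES-1 and cultured 48 hr, diluted to 5 μg/mL protein in reduced GSH (12.5 mmol/L KPB solution). Test articles were in 0.1 mol/L potassium phosphate pH 7.4, final DMSO 2% (v/v). PGE2 formed was quantified by HTRF.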
(TR-FRET usually uses a lanthanide donor and a delayed reading to cut background.)
Usually IC50 stands for the concentration that gives 50% inhibition. Low values mean greater potency in that assay, high ones weaker potency in that assay. `CCOc1cc(-c2nc(O)nc(-c3c(C)cccc3C)n2)ccc1Cl` [Example 2-52] came in with an IC50 of 0.1 µM.

As for `Cc1ccccc1COc1cccc(Cl)c1-c1nc(O)nc(-c2ccc(C(F)(F)F)cc2)n1` [Example 2-53], the IC50 is 0.011 µM.

On to `CCc1cc(-c2nc(O)nc(-c3c(C)cccc3C)n2)ccc1Cl` [Example 2-54], for which the half-maximal inhibitory concentration (IC50) amounted to 0.17 µM.

Consider `Cc1cccc(COc2cccc(Cl)c2-c2nc(O)nc(-c3ccc(C(F)(F)F)cc3)n2)c1` [Example 2-55], for which half-maximal inhibition (IC50) required 0.01 µM.

Take `Cc1ccc(COc2cccc(Cl)c2-c2nc(O)nc(-c3ccc(C(F)(F)F)cc3)n2)cc1` [Example 2-56]: the IC50 was determined as 0.018 µM.

As for `Cc1cccc(C)c1-c1nc(O)nc(-c2ccc(OCC3CCCCCC3)cc2)n1` [Example 2-57], the IC50 turned out to be 0.025 µM.

Compound `Cc1cccc(C)c1-c1nc(O)nc(-c2ccc(OCC(C)(C)C)cc2)n1` [Example 2-58] yielded an IC50 of 0.145 µM.

With `Cc1cccc(C)c1-c1nc(O)nc(-c2ccc(OCc3ccccc3)nc2)n1` [Example 2-59], the IC50 was 0.095 µM.

In turn, `Oc1nc(-c2ccc(C(F)(F)F)cc2)nc(-c2c(Cl)cccc2OCc2cccnc2)n1` [Example 2-60] gave an IC50 of 0.121 µM.

`Oc1nc(-c2ccc(C(F)(F)F)cc2)nc(-c2c(Cl)cccc2OCc2ccncc2)n1` [Example 2-61] registered an IC50 of 0.092 µM.

`CC(C)(C)COc1ccc(-c2nc(O)nc(-c3c(Cl)cccc3OCc3ccccn3)n2)cc1` [Example 2-62] yielded an IC50 of 0.0093 µM.

Take `C[C@@H](Oc1cccc(Cl)c1-c1nc(O)nc(-c2ccc(OCC(C)(C)C)cc2)n1)c1ccccn1` [Example 2-63]: the IC50 came to 0.259 µM.

`C[C@H](Oc1cccc(Cl)c1-c1nc(O)nc(-c2ccc(OCC(C)(C)C)cc2)n1)c1ccccn1` [Example 2-64] showed an IC50 of 0.012 µM.

Turning to `C[C@H](Oc1cccc(Cl)c1-c1nc(O)nc(-c2ccc(OCC(C)(C)C)cc2)n1)c1ccccc1` [Example 2-65], the IC50 came to 0.151 µM.

For `CC(C)COc1ccc(-c2nc(O)nc(-c3c(Cl)cccc3OCc3ccccn3)n2)cc1` [Example 2-66], the 50% inhibitory concentration (IC50) was determined as 0.016 µM.

`CC(C)COc1ccc(-c2nc(O)nc(-c3c(Cl)cccc3O[C@@H](C)c3ccccn3)n2)cc1` [Example 2-67] registered an IC50 of 0.027 µM.

Compound `CC(C)(C)COc1ccc(-c2nc(O)nc(-c3c(Cl)cccc3OCc3ncccn3)n2)cc1` [Example 2-68] had an IC50 of 0.672 µM.

In turn, `CCCCCOc1ccc(-c2nc(O)nc(-c3c(C)cccc3C)n2)cc1` [Example 2-69] returned an IC50 of 0.084 µM.

Consider `CCCCOc1ccc(-c2nc(O)nc(-c3c(C)cccc3C)n2)cc1` [Example 2-70], for which the midpoint of inhibition, the IC50, lay at 0.158 µM.

As to `Cc1cccc(C)c1-c1nc(O)nc(-c2ccc(OCCC(C)C)cc2)n1` [Example 2-71], the half-inhibitory concentration (IC50) came to 0.172 µM.

`Cc1cccnc1COc1cccc(Cl)c1-c1nc(O)nc(-c2ccc(OCC(C)C)cc2)n1` [Example 2-72] showed an IC50 of 0.283 µM.

Consider `CCC(CC)Oc1ccc(-c2nc(O)nc(-c3c(C)cccc3C)n2)cc1` [Example 2-73], for which the IC50 is 0.402 µM.

Turning to `Cc1cccc(C)c1-c1nc(O)nc(-c2ccc(OCC3CC3)cc2)n1` [Example 2-74], the IC50 amounted to 0.424 µM.

Take `Oc1nc(-c2ccc(OCC3CCC3)cc2)nc(-c2c(Cl)cccc2OCc2ccccn2)n1` [Example 2-75]: 0.0037 µM corresponded to half-maximal inhibition (IC50).

`Oc1nc(-c2ccc(C#CC3CCCCC3)cc2)nc(-c2c(Cl)cccc2OCc2ccccn2)n1` [Example 2-76] came in with an IC50 of 0.0058 µM.

`Oc1nc(-c2ccc(OCC3CCCCC3)cc2)nc(-c2c(Cl)cccc2OCc2ccccn2)n1` [Example 2-77] showed an IC50 of 0.0037 µM.

As to `Oc1nc(-c2ccc(C#Cc3ccccc3)cc2)nc(-c2c(Cl)cccc2OCc2ccccn2)n1` [Example 2-80], the IC50 stood at 0.0016 µM.

`Oc1nc(-c2ccc(C#CC3CCCC3)cc2)nc(-c2c(Cl)cccc2OCc2ccccn2)n1` [Example 2-81]: the IC50 was determined as 0.0027 µM.

With `Oc1nc(-c2ccc(C#CC3CC3)cc2)nc(-c2c(Cl)cccc2OCc2ccccn2)n1` [Example 2-82], half-maximal inhibition (IC50) was put at 0.0017 µM.
